Test systems include IGROV1 ovarian; A549 NSCLC; UACC-62 melanoma; MOLT-4 leukemia; NCI-H522 lung; MDA-MB-435; OVCAR-5 ovarian; SW-620 colon; MDA-N; MALME-3M melanoma; EKVX NSCLC; RPMI-8226 leukemia; ACHN renal; SNB-75 CNS.
What all share (assay): NCI-60 cell line screen, 48 h

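A five-concentration, 48-hour dose response in 96-well plates underlies each endpoint, interpolated linearly between surrounding concentrations. TGI is the concentration that stops growth completely.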

In the case of `CC[C@H](C)[C@H](NC(=O)[C@@]1(O)[C@H](O)[C@]2(CC)C=CCN3CC[C@@]4(c5cc(Br)c(OC)cc5N(C)[C@@H]14)[C@@H]32)C(=O)OC`, the TGI in the assay on IGROV1 ovarian is more than 100 µM; with A549 NSCLC, more than 100 µM; with UACC-62 melanoma, 28.9 µM; in the assay on MOLT-4 leukemia, more than 100 µM; in the assay on NCI-H522 lung, more than 100 µM; with MDA-MB-435, 71.3 µM. Also, the TGI in the assay with OVCAR-5 ovarian is more than 100 µM; in the assay with SW-620 colon, more than 100 µM; in the assay with MDA-N, more than 100 µM; with MALME-3M melanoma, 83.7 µM; in the assay on EKVX NSCLC it was more than 100 µM; with RPMI-8226 leukemia it was 34.9 µM. The molecule further showed a TGI with ACHN renal of more than 100 µM.
Turning to `O=c1c2ccccc2[nH]c2c(Cl)cc(Cl)c(N3CCCCC3)c12`, the TGI with IGROV1 ovarian was 48.2 µM; in the assay on A549 NSCLC, more than 100 µM; in the assay with UACC-62 melanoma, more than 10 µM; in the assay on MOLT-4 leukemia, more than 100 µM; with NCI-H522 lung, 64.3 µM; with SNB-75 CNS it was more than 100 µM. Further, the TGI was 55.8 µM with MDA-MB-435; more than 100 µM in the assay with OVCAR-5 ovarian; 84.8 µM in the assay on SW-620 colon; 63.1 µM in the assay with MDA-N; more than 100 µM in the assay on EKVX NSCLC; more than 100 µM in the assay on RPMI-8226 leukemia. In the assay on ACHN renal, this molecule showed a TGI of 65.7 µM.
Take `COC1/C=C/C(C)C(C(C)C(OC)C(C)CCC(=O)C(C)C(CC(=O)O)OC)OC(=O)/C=C/C=C(\C)CC(OC)CC2=CC(=O)O[C@H](C2)C(C)C(OC)CC(OC)/C=C/C(C)C(OC)C1` (some centres undefined): the TGI is 0.435 µM in the assay with IGROV1 ovarian; more than 4.35 µM in the assay on A549 NSCLC; 3.05 µM in the assay on UACC-62 melanoma; more than 4.35 µM in the assay on MOLT-4 leukemia; 1.82 µM with NCI-H522 lung; 0.0426 µM in the assay with SNB-75 CNS. The TGI with MDA-MB-435, in the assay on OVCAR-5 ovarian, with SW-620 colon, in the assay on MDA-N, in the assay on EKVX NSCLC and in the assay on RPMI-8226 leukemia was more than 4.35 µM throughout. The same molecule gave a TGI in the assay with ACHN renal of more than 4.35 µM.
For `COc1cc(C2c3c(ccc4ccccc34)C(=O)C3CCC(=O)N32)cc(OC)c1O` (centres undefined), the TGI with IGROV1 ovarian, in the assay on A549 NSCLC, with UACC-62 melanoma, in the assay with MOLT-4 leukemia, in the assay with SNB-75 CNS and in the assay with MDA-MB-435 was more than 25 µM throughout. Also, the TGI with OVCAR-5 ovarian, in the assay on SW-620 colon, with MDA-N, in the assay with EKVX NSCLC, in the assay with RPMI-8226 leukemia and with ACHN renal was more than 25 µM throughout.
In the case of `COC1=CC(=O)C2=C(C[C@@]3(C)C(=C2)C(CO)=CC[C@H]3O)C1=O`, the TGI with IGROV1 ovarian was 31.7 µM; in the assay on A549 NSCLC it was more than 100 µM; in the assay with UACC-62 melanoma, 32.4 µM; with MOLT-4 leukemia, 2.49 µM; with MDA-MB-435, 41.2 µM; in the assay with OVCAR-5 ovarian, 54.5 µM. Moreover, the TGI in the assay with SW-620 colon is 60.6 µM; with MDA-N it was 37.4 µM; in the assay with MALME-3M melanoma, more than 100 µM; with EKVX NSCLC, 38.8 µM; with RPMI-8226 leukemia it was 44.5 µM; with ACHN renal, 33.1 µM.
For the molecule `Cc1cc2nc(N3C(=O)/C(=C/c4ccc(N(C)C)cc4)N=C3c3ccccc3)sc2cc1C`, the TGI was more than 100 µM in the assay on IGROV1 ovarian; more than 100 µM in the assay on A549 NSCLC; more than 100 µM in the assay on UACC-62 melanoma; 49.8 µM in the assay on MOLT-4 leukemia; 56.8 µM in the assay with SNB-75 CNS; 51 µM with MDA-MB-435. Further, the TGI in the assay with OVCAR-5 ovarian was 84.2 µM; with SW-620 colon it was more than 100 µM; in the assay with MDA-N, 33.8 µM; with EKVX NSCLC it was more than 100 µM; in the assay with RPMI-8226 leukemia, more than 100 µM; in the assay with ACHN renal it was 62.4 µM.
In the case of `[N-]=[N+]=CC(=O)CCC(=O)N(c1ccccc1)c1ccccc1`, the TGI in the assay with IGROV1 ovarian, in the assay on A549 NSCLC, in the assay on MOLT-4 leukemia, in the assay with SNB-75 CNS, in the assay on MDA-MB-435 and with OVCAR-5 ovarian was more than 10 µM each time. Also, the TGI with SW-620 colon, in the assay with MDA-N, with MALME-3M melanoma, in the assay on EKVX NSCLC and in the assay with ACHN renal was more than 10 µM each time.
On to `CCCCOC(=O)c1cc(C(=CCC[C@H]2CC[C@@]3(C)[C@@H](CC[C@@H]4[C@@H]3CC[C@]3(C)[C@@H](C(C)CCCC(C)C)CC[C@@H]43)C2)c2cc(Cl)c(O)c(C(=O)OCCCC)c2)cc(Cl)c1O` (some centres undefined), for which the TGI in the assay on IGROV1 ovarian is more than 50 µM; in the assay on UACC-62 melanoma it was more than 50 µM; with MOLT-4 leukemia, more than 5 µM; with SNB-75 CNS, more than 50 µM; in the assay on MDA-MB-435, more than 50 µM; in the assay on SW-620 colon it was more than 50 µM. The TGI in the assay with MDA-N, in the assay on EKVX NSCLC and in the assay on RPMI-8226 leukemia was more than 50 µM in each case.
Turning to `CCOC(=O)C(CCc1ncnc2c1ncn2Cc1ccccc1)(CCc1ncnc2c1ncn2Cc1ccccc1)C(=O)OCC`, the TGI with IGROV1 ovarian, in the assay with A549 NSCLC, in the assay with UACC-62 melanoma, in the assay on MOLT-4 leukemia, in the assay on NCI-H522 lung and with MDA-MB-435 was more than 100 µM throughout. For the same molecule, the TGI in the assay on OVCAR-5 ovarian, in the assay on SW-620 colon, in the assay on MDA-N, in the assay on MALME-3M melanoma, in the assay with EKVX NSCLC and in the assay with RPMI-8226 leukemia was more than 100 µM throughout. Also, the TGI in the assay with ACHN renal was more than 100 µM.
As for `Cc1ccc(N=C2C(c3ccccc3)=C(SC3=C(c4ccccc4)C(=Nc4ccc(C)cc4)c4ccccc43)c3ccccc32)cc1`, the TGI was 45.5 µM in the assay on IGROV1 ovarian; more than 100 µM in the assay with A549 NSCLC; more than 51.7 µM with UACC-62 melanoma; more than 100 µM with MOLT-4 leukemia; more than 100 µM in the assay with NCI-H522 lung; 22.2 µM in the assay on SNB-75 CNS. Besides, the TGI was more than 100 µM in the assay on MDA-MB-435; more than 100 µM with OVCAR-5 ovarian; more than 100 µM with SW-620 colon; more than 100 µM in the assay with MDA-N; 43.9 µM with EKVX NSCLC; more than 100 µM in the assay on RPMI-8226 leukemia. In addition, the TGI in the assay with ACHN renal was 18.3 µM.
With `O=C(C/C=C/c1ccccc1)c1ccccc1`, the TGI in the assay with IGROV1 ovarian was more than 100 µM; in the assay on A549 NSCLC, 26 µM; in the assay on UACC-62 melanoma, 26.4 µM; in the assay with MOLT-4 leukemia it was 61.6 µM; in the assay with NCI-H522 lung, 34.1 µM; in the assay on SNB-75 CNS, 69.2 µM. Also, the TGI with MDA-MB-435 was 42.5 µM; with OVCAR-5 ovarian, more than 100 µM; in the assay with SW-620 colon, more than 100 µM; in the assay on MDA-N, 50.9 µM; in the assay on EKVX NSCLC, more than 100 µM; with RPMI-8226 leukemia, 83.5 µM. In addition, the TGI with ACHN renal came to 35.8 µM.

These data come from PubChem BioAssay (NCI).
